Measurements as given in patent publication US20250327793A1, “METHODS OF IDENTIFYING COMPOUNDS THAT MODULATE LAUNDRY MALODOR, MOLDY MALODOR, OR SWEAT MALODOR” (Firmenich SA, priority 2017, published 2025).

Columns and labels:
[1] = target: Olfr1364 (Mus musculus, UniProt Q5SZS9); assay: 1-octen-3-ol concentration-dependent activation of Olfr1364: OR-dependent cAMP accumulation in a cell-based assay (functional dose-response); conditions: agonist, mouse Olfr1364 (SEQ ID NO: 69), N-terminal FLAG/Rho/Lucy tags, HEK 293T cells, Gαolf, FIG. 6
Sequence of Olfr1364 (Q5SZS9 9-314): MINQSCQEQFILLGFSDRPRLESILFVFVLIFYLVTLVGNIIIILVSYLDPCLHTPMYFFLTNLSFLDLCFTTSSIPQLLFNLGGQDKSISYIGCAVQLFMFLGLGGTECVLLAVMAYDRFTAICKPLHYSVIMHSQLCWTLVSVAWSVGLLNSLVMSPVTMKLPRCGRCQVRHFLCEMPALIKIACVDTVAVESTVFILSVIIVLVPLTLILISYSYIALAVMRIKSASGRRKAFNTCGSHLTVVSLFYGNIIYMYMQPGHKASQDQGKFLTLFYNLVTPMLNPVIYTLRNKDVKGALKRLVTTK
Source text: (§1) The detection method pertains to OR-dependent accumulation of cAMP in said cells, as a result of OR activation by 1-octen-3-ol.
(§2) In a further embodiment, to complete the deorphanization process, the candidate OR genes are further expressed in vitro for confirmation of activity against the compounds used to isolate the olfactory sensory neurons and other structurally-related compounds of interest. […]
(§3) Neurons that were activated by DMTS were further isolated for full transcriptome analysis to identify the responsive odorant receptor. […] Amplified cDNA was then used to generate an Illumina cDNA library for Next-Generation-Sequencing and the generation of 100 base pair single read sequences. […]

[2] = target: Olfr398 (Mus musculus, UniProt Q8VFY0); assay: 1-octen-3-ol concentration-dependent activation of Olfr398: OR-dependent cAMP accumulation in a cell-based assay (functional dose-response); conditions: agonist, mouse Olfr398 (SEQ ID NO: 65), N-terminal FLAG/Rho/Lucy tags, HEK 293T cells, Gαolf, FIG. 6
Sequence of Olfr398 (Q8VFY0 1-314): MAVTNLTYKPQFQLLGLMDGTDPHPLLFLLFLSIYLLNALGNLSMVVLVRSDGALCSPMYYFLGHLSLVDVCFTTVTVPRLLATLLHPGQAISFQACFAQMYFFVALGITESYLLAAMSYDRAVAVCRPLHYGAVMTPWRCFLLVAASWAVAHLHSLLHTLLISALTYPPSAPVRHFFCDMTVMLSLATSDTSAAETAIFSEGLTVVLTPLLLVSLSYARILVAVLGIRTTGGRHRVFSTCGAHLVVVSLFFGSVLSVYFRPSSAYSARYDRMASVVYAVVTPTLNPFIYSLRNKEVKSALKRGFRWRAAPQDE

[3] = target: Olfr93 (Mus musculus, UniProt B9EI77); assay: 1-octen-3-ol concentration-dependent activation of Olfr93: OR-dependent cAMP accumulation in a cell-based assay (functional dose-response); conditions: agonist, mouse Olfr93 (SEQ ID NO: 63), N-terminal FLAG/Rho/Lucy tags, HEK 293T cells, Gαolf, FIG. 6
Sequence of Olfr93 (B9EI77 1-312): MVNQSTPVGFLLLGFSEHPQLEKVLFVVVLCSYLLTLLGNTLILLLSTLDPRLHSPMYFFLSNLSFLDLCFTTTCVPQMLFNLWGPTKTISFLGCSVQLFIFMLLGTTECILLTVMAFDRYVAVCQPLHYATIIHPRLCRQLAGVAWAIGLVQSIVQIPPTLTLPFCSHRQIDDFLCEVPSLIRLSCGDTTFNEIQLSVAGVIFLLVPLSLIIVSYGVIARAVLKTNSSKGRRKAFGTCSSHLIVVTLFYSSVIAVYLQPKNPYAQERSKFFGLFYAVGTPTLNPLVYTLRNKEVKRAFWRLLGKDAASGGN
Source text: as §1, §2, §3

[4] = target: Olfr120 (Mus musculus, UniProt Q7TRJ4); assay: 1-octen-3-ol concentration-dependent activation of Olfr120: OR-dependent cAMP accumulation in a cell-based assay (functional dose-response); conditions: agonist, mouse Olfr120 (SEQ ID NO: 67), N-terminal FLAG/Rho/Lucy tags, HEK 293T cells, Gαolf, FIG. 6
Sequence of Olfr120 (Q7TRJ4 1-321): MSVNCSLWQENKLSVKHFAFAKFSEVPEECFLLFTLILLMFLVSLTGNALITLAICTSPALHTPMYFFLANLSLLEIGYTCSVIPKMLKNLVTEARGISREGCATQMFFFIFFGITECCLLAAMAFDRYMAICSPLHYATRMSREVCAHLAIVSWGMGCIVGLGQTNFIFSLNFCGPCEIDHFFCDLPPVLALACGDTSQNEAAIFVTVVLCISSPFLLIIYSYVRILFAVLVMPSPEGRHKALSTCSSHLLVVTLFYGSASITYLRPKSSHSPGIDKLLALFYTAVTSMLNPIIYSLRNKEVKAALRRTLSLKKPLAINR
Source text: as §1, §2, §3

[5] = target: Olfr46 (Mus musculus, UniProt Q2VPD7); assay: Transpirol concentration-dependent activation of Olfr46: OR-dependent cAMP accumulation in a cell-based assay (functional dose-response); conditions: agonist, mouse Olfr46 (SEQ ID NO: 75), N-terminal FLAG/Rho/Lucy tags, HEK 293T cells, Gαolf, FIG. 7
Sequence of Olfr46 (Q2VPD7 1-310): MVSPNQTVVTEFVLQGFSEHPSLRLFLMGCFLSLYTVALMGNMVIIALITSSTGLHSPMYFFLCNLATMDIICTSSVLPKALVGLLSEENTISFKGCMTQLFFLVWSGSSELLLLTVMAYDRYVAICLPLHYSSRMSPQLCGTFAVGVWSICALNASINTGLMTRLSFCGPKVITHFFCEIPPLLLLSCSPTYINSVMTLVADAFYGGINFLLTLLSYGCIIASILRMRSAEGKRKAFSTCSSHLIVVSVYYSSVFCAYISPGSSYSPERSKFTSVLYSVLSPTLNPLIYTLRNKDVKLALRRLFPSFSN
Source text: (§4) The detection method pertains to OR-dependent accumulation of cAMP in said cells, as a result of OR activation by transpirol.
as §2, §3

[6] = target: T1, OR2W1 (Homo sapiens, UniProt Q9Y3N9, M81V); assay: Concentration-dependent activation of OR2W1: OR-dependent cAMP accumulation in a cell-based assay (functional dose-response); parameters: expressed in transfected cells; host or cells: HEK293T; conditions: agonist transpirol, human OR2W1 (SEQ ID NO: 2), HEK293T cells expressing Golf, FIG. 7
T1 sequence (Q9Y3N9 1-320 M81V): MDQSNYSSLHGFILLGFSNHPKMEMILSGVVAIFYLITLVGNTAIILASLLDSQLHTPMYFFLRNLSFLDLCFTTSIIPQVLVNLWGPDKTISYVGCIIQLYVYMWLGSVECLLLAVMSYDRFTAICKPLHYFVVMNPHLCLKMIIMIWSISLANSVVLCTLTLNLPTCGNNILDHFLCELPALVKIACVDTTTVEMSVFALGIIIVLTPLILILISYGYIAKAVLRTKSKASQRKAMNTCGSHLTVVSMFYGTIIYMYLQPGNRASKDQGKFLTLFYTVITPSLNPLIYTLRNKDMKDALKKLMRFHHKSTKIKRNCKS
Source text: as §4
(§5) The detection method pertains to OR-dependent accumulation of cAMP in said cells, as a result of OR activation by 3-methyl-2-hexenoic acid.
as §2
In the second method, a panel of odorant receptors comprising the 400 putatively functional human receptor repertoire were transfected into a cultured human HEK293T cell line described in WO2014/210585 expressing Human olfactory G-protein alpha subunit (Golf—SEQ. ID No. 49) and coupled to a cyclicAMP reporter. Said panel of in vitro odorant receptors were exposed to MCSs and the level of cAMP signal was measured for each receptor. […]

[7] = target: Olfr263 (Mus musculus, UniProt Q7TQT8); assay: Concentration-dependent activation of Olfr263: OR-dependent cAMP accumulation in a cell-based assay (functional dose-response); conditions: agonist transpirol, mouse Olfr263 (SEQ ID NO: 22), N-terminal FLAG/Rho/Lucy tags, HEK 293T cells, Gαolf, FIG. 7
Sequence of Olfr263 (Q7TQT8 1-317): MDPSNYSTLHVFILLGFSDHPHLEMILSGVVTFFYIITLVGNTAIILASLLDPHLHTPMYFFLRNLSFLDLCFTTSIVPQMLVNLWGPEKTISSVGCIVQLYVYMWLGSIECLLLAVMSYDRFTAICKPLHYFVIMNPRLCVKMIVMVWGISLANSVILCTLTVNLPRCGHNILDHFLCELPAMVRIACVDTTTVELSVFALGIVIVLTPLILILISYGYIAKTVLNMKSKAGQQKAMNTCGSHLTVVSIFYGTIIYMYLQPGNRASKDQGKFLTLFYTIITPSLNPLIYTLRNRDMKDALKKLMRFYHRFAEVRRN
Source text: as §4, §5, §2, §3

Row | EC50 [1] [µM] | EC50 [2] [µM] | EC50 [3] [µM] | EC50 [4] [µM] | EC50 [5] [µM] | EC50 [6] [µM] | EC50 [7] [µM] | SMILES
1 | 113 | 11.4 | 0.69 | 26 | – | – | – | C=CC(O)CCCCC (stereo not shown) [1-Octen-3-ol, 1-octen-3-ol]
2 | – | – | – | – | 170 | 3.1 | 2.3 | CCCC(C)(S)CCO (stereo not shown) [Transpirol, 3-methyl-3-sulphanylhexanol]
